# Experimental data as given in patent US12514845B2, “Ionic-liquid-based formulations for the prevention or treatment of neurological diseases” (Universidade De Aveiro, priority 2022, dated 2026).
# Read-outs that look alike come from different tables or passages of the source.
# Key:
# [1] = test system: dopaminergic neurons in the substantia nigra (SN); test: 6OHDA intrastriatal injection mouse model of PD, TH+ neuron count in SN; type: in vivo; conditions: 6-OHDA 10 μg/2 μL right striatum, day 7, vs control group (FIG. 10)
# Description: In an embodiment, the biological neuroprotective effect of [Chol]2[N1(4)inh]+N1(4)inh+N1(4)inh when administrated via brain intraventricular infusion route was evaluated in an mouse model for PD induced by the intracerebral injection of 6OHDA, and the number of dopaminergic neurons in the substantia nigra counted.
# In an embodiment, Male C57BL/6 mice were anesthetized and placed in the digital stereotaxic frame. Once the mouse skull was exposed, and using a digital coordinates system, injection and infusion sites were determined setting the zero at the bregma point. Hereupon, an injection of 6-OHDA (10 μg/2 μL of ascorbic acid 0.1% v/v) was performed in the right striatum (ST) of each animal using the coordinates: medial-lateral (ML): −2 mm; anterior-posterior (AP): 0.6 mm; dorsoventral (DV): −3.0 mm, using a Hamilton syringe at speed of 0.2 μL/min. The delivery of 0.2 mg/kg/day of [Chol]2[N1(4)inh]+N1(4)inh+N1(4)inh was performed as describe above. […]
# The results are expressed as a percentage of Saline (Group (1) which are animals exposed only to saline solution) and represented as the mean±SEM of at least 3 independent experiments (n=3-4). […]
# [2] = in vitro; conditions: rat
# Description: (§2) The data are presented as percentage of control and presented as the mean±SEM of at least five repetitions of three independent experiments (n=3). Statistical analysis was performed using one-way ANOVA (non-parametric analysis), followed by the Kruskal-Wallis test, followed by Dunn's multiple comparison test. **p<0.01 compared to CTR or the group of cells exposed to cholinium chloride only +++p<0.001 compared to 6OHDA.
# [3] = test system: N27 dopaminergic neuronal cells exposed to MPP+; conditions: 24 h (FIG. 8)
# Description: The data are presented as percentage of control as the mean±SEM of at least five repetitions of three independent experiments (n=3).
# [4] = test system: male wistar rats exposed to PQ; type: in vivo; conditions: PQ 2.5 mg/kg/day subcutaneous 4 weeks, week 8, vs control group (FIG. 22)
# Description: (§1) In an embodiment, the biological neuroprotective effect of [Chol]2[N1(4)inh]+N1(4)inh+N1(4)inh when administrated via intranasal route was evaluated in rat model for PD induced by the exposure to a low chronic dose of PQ and through the analysis of the progression of behavior dysfunction. In this model, the animals are exposed to the toxin during 30 days (4 weeks) and then keeped alive during more 30 days to allow the pathology to progress (Total 8 weeks). The administration of [Chol]2[N1(4)inh]+N1(4)inh started after the first 30 exposure to PQ, via brain intraventricle or intranasal route and lasted the second 30 days. Animals were euthanized at week 8.
# In an embodiment, male wistar rats 8-12 week-old subjected to subcutaneous chronic administration of PQ, that was carried out using osmotic minipumps (Alzet Durect, Cupertino, CA) at a dose of 2.5 mg/kg/day with a fluid delivery rate of 0.25 μL/hr for a period of four weeks (Alzet model 2004, large pumps). […] To evaluate the neuroprotective function of the IL-based formulation when administrated via intranasal route, behavior function was evaluated. Motor coordination, balance and grip strength were analyzed using a rat rotarod apparatus model 47700 (Ugo Basile, Comerio, Italy). […] The training was performed in 2 consecutive days, on each day 4 test trials were assessed, each lasting 5 min. […]
# [5] = test system: male wistar rats exposed to PQ; type: in vivo; conditions: PQ 2.5 mg/kg/day subcutaneous 4 weeks
# Description: as §1, with “administrated via brain intraventricular infusion route was” for “administrated via intranasal route was”, “evaluated in a rat model” for “evaluated in rat model”, “dose of PQ, through the” for “dose of PQ and through the”
# In an embodiment, male wistar rats 8-12 week-old were housed in a temperature/humidity-controlled environment under 12 h light/dark cycle with free access to water and food and subjected to subcutaneous chronic administration of PQ, that was carried out using osmotic minipumps (Alzet Durect, Cupertino, CA) at a dose of 2.5 mg/kg/day with a fluid delivery rate of 0.25 μL/hr for a period of four weeks (Alzet model 2004, large pumps). Control groups were implanted with minipump filled with sterile saline, the vehicle used to dissolve PQ. […] Once the rat skull was exposed and, using a digital coordinates system, the infusion sites were determined setting the zero at the bregma point. […] To evaluate the neuroprotective function of the IL-based formulation when infused in brain ventricle, behavior function was evaluated. Motor coordination, balance and grip strength were analyzed using a rat rotarod apparatus model 47700 (Ugo Basile, Comerio, Italy). […] The training was performed in 2 consecutive days, on each day 4 test trials were assessed, each lasting 5 min. […] The rotarod test was performed under an accelerating protocol (4-40 RPM) for 5 min, and the latency to fall was recorded using a specific software. […]
# [6] = test system: dopaminergic neurons; conditions: PD models; Afonso 2017; cited from earlier work
# [7] = Afonso 2017, MSc thesis; cited from earlier work
# [8] = test system: N27 dopaminergic neuronal cells exposed to 6OHDA; conditions: 20 μM pretreatment 2.5 h before 50 μM 6OHDA, 24 h (FIG. 7)
# Description: as §2
smiles,measurement,setting,value
"NCCc1cc(O)c(O)cc1O [6OHDA, 6-hydroxydopamine]",reduction in the number of SN dopaminergic neurons,[1],45%
same,"cytotoxicity at 24 h, 50 µM",[2],45%
"C[n+]1ccc(-c2ccccc2)cc1 [MPP+, 1-methyl-4-phenylpyridinium]",loss of N27 cells viability,[3]; 10 μM MPP+,45%
"C[n+]1ccc(-c2cc[n+](C)cc2)cc1 [PQ, paraquat]",reduction in the latency to fall (rotarod),[4],47%
same,reduction in the distance travelled (open-field),"[5]; week 8, vs control (FIG. 20)",55%
same,reduction of speed (open-field),"[5]; week 8, vs control (FIG. 21)",50%
same,reduction in the latency to fall (rotarod),"[5]; week 8, vs control group (FIG. 19)",43%
"COc1cc(C(C)=O)ccc1[O-].C[N+](C)(C)CCO [[Chol][Apo], cholinium apocynate]",6OHDA-induced toxicity in dopaminergic neurons,[6],significant reduction
same,increase in water solubility versus Apo,[7],50 fold
C[N+](C)(C)CCO.[Cl-] [cholinium chloride],prevention of MPP+ dopaminergic neurotoxicity (cell viability),[3]; 20 μM pretreatment 2.5 h before 10 μM MPP+,did not exert any protective effect
same,prevention of 6OHDA-induced neurotoxicity (cell viability),[8],not prevented
